Legend:
[1] = Determination of Acute Toxicity (oral LD50 in mice); details: mouse, in vivo
Description: (2) Determination of Acute Toxicity
The lethal dose LD50 of the derivatives of certain examples were evaluated after administration by the oral route in mice.

[2] = tested on: ulcers in rats in the stomach region; assay: Determination of anti-ulcer activity (Shay method, ulcers induced in rats by pyloric ligation); assay type: in vivo; details: via the mouth, 16 hours after treatment
Text: (1) Determination of anti-ulcer activity
The method used is described by Shay et al. in Gastroenterology, 5, 43, (1945).
The Shay method consists of inducing ulcers in rats in the stomach region by pyloric ligation.
The animals are anesthetized with ether. A longitudinal incision is made, 1 cm below the sternum; the glandular part of the stomach and the duodenum are exposed, and a ligature is placed several mm below the pylorus. The muscular sheet is left as it is and the skin is sutured with 2 clips.
The animals immediately receive the dispersive or the substance to be studied, via the mouth, in a volume of 0.5 ml/100 g and are kept without food or drink until sacrificed, 16 hours after the treatment, by carotid bleeding.
Before removal of the stomach, a ligature is placed above the cardia.
The gastric liquid is collected for measurement of pH.
The stomach is then opened along the major curvature, rinsed with physiological serum, and spread out on millimeter graph paper to be examined under a binocular magnifier.
The severity of the lesions, graded 0 to 4, is macroscopically evaluated for each stomach.
For each group of rats, the mean intensity of the ulcerations is determined, and the protection is calculated as the ratio of the mean index for the treated group to the mean index for the control group.
The pH values of the gastric liquid are likewise determined for the treated and control animals.

## COc1ccc(C(=O)CC(O)C(=O)O)cc1OC (stereo not shown) [Example 1, 4-(3,4-dimethoxyphenyl)-4-oxo-2-hydroxy-butanoic acid]
[1]
  LD50: > 1000 mg/kg
[2]; 0.8 mg/kg
  Ulcerations, % of protection with respect to controls: 27%
  pH of gastric liquid, treated animals: 3.4
[2]; 4 mg/kg
  Ulcerations, % of protection with respect to controls: 72%
  pH of gastric liquid, treated animals: 3.0
[2]; 20 mg/kg
  Ulcerations, % of protection with respect to controls: 72%
  pH of gastric liquid, treated animals: 2.3

## O=C(CC(O)C(=O)O)c1ccc(Cl)cc1 (stereo not shown) [Example 2, 4-(4-chlorophenyl)-4-oxo-2-hydroxy-butanoic acid]
[1]
  LD50: > 1000 mg/kg
[2]; 4 mg/kg
  Ulcerations, % of protection with respect to controls: 25%
  pH of gastric liquid, treated animals: 3.5
[2]; 20 mg/kg
  Ulcerations, % of protection with respect to controls: 72%
  pH of gastric liquid, treated animals: 3.0

## O=C(CC(O)C(=O)O)c1ccc(Cl)c(Cl)c1 (stereo not shown) [Example 3, 4-(3,4-dichlorophenyl)-4-oxo-2-hydroxy-butanoic acid]
[1]
  LD50: > 1000 mg/kg
[2]; 20 mg/kg
  Ulcerations, % of protection with respect to controls: 36%
  pH of gastric liquid, treated animals: 3.2
[2]; 100 mg/kg
  Ulcerations, % of protection with respect to controls: 91%
  pH of gastric liquid, treated animals: 4.2

## O=C(CC(O)C(=O)O)c1ccc(Cl)cc1Cl (stereo not shown) [Example 4, 4-(2,4-dichlorophenyl)-4-oxo-2-hydroxy-butanoic acid]
[1]
  LD50: > 1000 mg/kg
[2]; 20 mg/kg
  Ulcerations, % of protection with respect to controls: 9%
  pH of gastric liquid, treated animals: 2.9
[2]; 100 mg/kg
  Ulcerations, % of protection with respect to controls: 91%
  pH of gastric liquid, treated animals: 4.4

## O=C(CC(O)C(=O)O)c1ccc(Br)cc1 (stereo not shown) [Example 5, 4-(4-bromophenyl)-4-oxo-2-hydroxy-butanoic acid]
[1]
  LD50: > 1000 mg/kg
[2]; 20 mg/kg
  Ulcerations, % of protection with respect to controls: 40%
  pH of gastric liquid, treated animals: 3.1
[2]; 100 mg/kg
  Ulcerations, % of protection with respect to controls: 95%
  pH of gastric liquid, treated animals: 3.4

## O=C(CC(O)C(=O)O)c1ccc([N+](=O)[O-])cc1 (stereo not shown) [Example 8, 4-(4-nitrophenyl)-4-oxo-2-hydroxy-butanoic acid]
[1]
  LD50: > 1000 mg/kg
[2]; 100 mg/kg
  Ulcerations, % of protection with respect to controls: 49%
  pH of gastric liquid, treated animals: 3.0

## COc1cc(OC)cc(C(=O)CC(O)C(=O)O)c1 (stereo not shown) [Example 11, 4-(3,5-dimethoxyphenyl)-4-oxo-2-hydroxy-butanoic acid]
[1]
  LD50: > 1000 mg/kg
[2]; 1 mg/kg
  Ulcerations, % of protection with respect to controls: 53%
  pH of gastric liquid, treated animals: 1.9
[2]; 4 mg/kg
  Ulcerations, % of protection with respect to controls: 50%
  pH of gastric liquid, treated animals: 2.0
[2]; 20 mg/kg
  Ulcerations, % of protection with respect to controls: 60%
  pH of gastric liquid, treated animals: 2.0
[2]; 100 mg/kg
  Ulcerations, % of protection with respect to controls: 88%
  pH of gastric liquid, treated animals: 3.0

## O=C(CC(O)C(=O)O)c1ccccc1[N+](=O)[O-] (stereo not shown) [Example 13, 4-(2-nitrophenyl)-4-oxo-2-hydroxy-butanoic acid]
[1]
  LD50: > 1000 mg/kg
